Laboratory results published in patent US20240148962A1, “INTRAVENOUS DELIVERY OF LARGE VOLUMES OF GAS WITH HIGHLY PRESSURIZED SUPERSATURATED SOLUTION” (Regents of the University of Minnesota, priority 2021, published 2024).

Experiments:
[1] = Oxygen content dissolved in saline under different pressure and temperature, with and without nanobubbles; format: physicochemical; conditions: FIG. 4A; 5° C. and 5 atm
Text: Nanobubbles (triangles) are compared to control and macrobubbles (dots).

[2] = 1 atm, room temperature; cited from earlier work

In the case of O=O [oxygen], the “oxygen content in saline without nanobubbles” value [1] is listed as 200 ml of oxygen per L of saline and the “content of oxygen, previously published evidence” value [2] is listed as 43 ml/liter.
